Reference: article PMC3488872 (Chemistry & biology, 2012)

Test system: HeLa cells transfected with GR-GFP
Assay: GR-GFP translocation assay for cytosolic access

effect of bafilomycin on TR (200 nM bafilomycin 1 h pretreatment, then 1 μM): did not alter
SMILES: C[C@@H]1C[C@H]2[C@@H]3CCC4=CC(=O)C=C[C@]4(C)[C@@]3(F)[C@@H](O)C[C@]2(C)[C@@]1(O)C(=O)CO [Dex, dexamethasone]
effect of EIPA on TR (50 μM EIPA 30 min pretreatment, then 1 μM 30 min 37°C): Neither EIPA nor dynasore blocked the increase
effect of dynasore on TR (80 μM dynasore 30 min pretreatment, then 1 μM 30 min 37°C): Neither EIPA nor dynasore blocked the increase
reduction of the increase in TR by MβCD (5 mM MβCD, 1 μM 30 min): 53%
